According to patent US5840688A, “Eating suppressant peptides” (Research Corporation Technologies, Inc., priority 1995, dated 1998):
No end group written: not given here.

Tests used:
animal = settings: in vivo; cited from earlier work
male Sprague Dawley rats [1] = experiment: Feeding study: food intake after infusion into the third ventricle of 24 h fasted rats; assay type: in vivo, rat
Experimental: Animals used in vivo food intake studies were male Sprague Dawley rats weighing between 280 and 320 grams. The rats were housed in a room illuminated from 06:00 to 18:00 hours (twelve hour light-dark cycle) with a temperature maintained at 21 ±1° C. Both tap water and powdered laboratory chow (Laboratory chow #5001, Purina Mills, Inc.) were provided ad libitum to the rats.
Rats used in the study were surgically equipped with an infusion cannula in the third ventricle. Under sodium pentobarbital anesthesia (50 mg/kg ip), each rat was fixed in a stereotaxic apparatus, its skull was exposed, and two small screws were threaded into the skull to anchor the cannula. A three millimeter diameter hole was drilled in the skull on the midline six millimeters anterior to ear bar zero. […]
In the feeding study, food was removed twenty four hours before the experiment, but free access to water was allowed. […] After twenty four hours of fasting, each rat was re-fed at 13:00 hour, and powdered food consumption was measured at thirty minutes after the resumption of feeding. […]
Data from the feeding study were evaluated using one-way analysis of variance, and multiple comparisons were carried out using the method of least significant difference. […]

male Sprague Dawley rats [2] = settings: cited from earlier work
[3] = apo A-IV appearing in mesenteric lymph after a lipid meal; cited from earlier work

For `CSCC[C@H](NC(=O)[C@H](CC(C)C)NC(=O)[C@H](Cc1cnc[nH]1)NC(=O)CNC(=O)[C@@H](NC(=O)[C@H](C)NC(=O)[C@H](Cc1c[nH]c2ccccc12)NC(=O)[C@H](CCC(N)=O)NC(=O)[C@H](CC(N)=O)NC(=O)CNC(=O)[C@H](CC(C)C)NC(=O)[C@H](CCCN=C(N)N)NC(=O)[C@H](CCC(N)=O)NC(=O)[C@@H]1CCC(=O)N1)C(C)C)C(N)=O` [bombesin], the “food intake in animal studies” value (animal) is listed as “decrease food intake”.

With “EVTSDQVANVMWDYFTQL SNNAKEAVEQLQ (EVTSDQVANVMWDYFTQLSNNAKEAVEQLQ) [SEQ ID NO:1, 30-mer, first thirty amino acids of the mature rat apo A-IV]” the “inhibition of food intake” value (male Sprague Dawley rats [1]; synthetic peptide infused into third ventricle, doses 0.125-1.0 μg per rat, 24 h fasted, food consumption at thirty minutes after re-feeding) was “inhibit food intake in a dose-dependent manner”.

In the case of Glucagon, the “food intake in animal studies” value (animal) is listed as “decrease food intake”.

In the case of anorectin, the “food intake in animal studies” value (animal) is listed as “decrease food intake”.

In the case of “calcitonin (CGNLSTCMLGTYTQDFNKFHTFPQTAIGVGAP; ends and bridges not checked; cysteine pairing not given here; UniProt P01258 85-116, looked up) [peptide proposed as affecting eating behavior]”, the “food intake in animal studies” value (animal) is given as “decrease food intake”.

In the case of “corticotropin releasing hormone (SEEPPISLDLTFHLLREVLEMARAEQLAQQAHSNRKLMEII; ends and bridges not checked; UniProt P06850 154-194, looked up) [peptide proposed as affecting eating behavior]”, the “food intake in animal studies” value (animal) is given as “decrease food intake”.

For cyclo-HisPro, the “food intake in animal studies” value (animal) is listed as “decrease food intake”.

In the case of enterostatin, the “food intake in animal studies” value (animal) is listed as “decrease food intake”.

B1: apo A-IV: 46,000-Da polypeptide associated with lipoproteins; species of the cited test protein not printed (protein, UniProt P06727 21-396, looked up)
Apolipoprotein A-IV: EVSADQVATVMWDYFSQLSNNAKEAVEHLQKSELTQQLNALFQDKLGEVNTYAGDLQKKLVPFATELHERLAKDSEKLKEEIGKELEELRARLLPHANEVSQKIGDNLRELQQRLEPYADQLRTQVSTQAEQLRRQLTPYAQRMERVLRENADSLQASLRPHADELKAKIDQNVEELKGRLTPYADEFKVKIDQTVEELRRSLAPYAQDTQEKLNHQLEGLTFQMKKNAEELKARISASAEELRQRLAPLAEDVRGNLRGNTEGLQKSLAELGGHLDQQVEEFRRRVEPYGENFNKALVQQMEQLRQKLGPHAGDVEGHLSFLEKDLRDKVNSFFSTFKEKESQDKTLSLPELEQQQEQQQEQQQEQVQMLAPLES
For B1, the “food intake after central administration” value (male Sprague Dawley rats [2]; administered centrally) is listed as “significantly suppressed in a dose-dependent manner”, the “potency administered centrally versus peripherally” value (male Sprague Dawley rats [2]; central vs peripheral administration) is listed as “more than 50 fold” and the food intake [3] is listed as “suppresses food intake”.

B2: human apo A-IV: entire human apolipoprotein A-IV molecule obtained from human serum, purified by preparative polyacrylamide gel electrophoresis (protein, UniProt P06727 21-396, looked up)
Apolipoprotein A-IV: EVSADQVATVMWDYFSQLSNNAKEAVEHLQKSELTQQLNALFQDKLGEVNTYAGDLQKKLVPFATELHERLAKDSEKLKEEIGKELEELRARLLPHANEVSQKIGDNLRELQQRLEPYADQLRTQVSTQAEQLRRQLTPYAQRMERVLRENADSLQASLRPHADELKAKIDQNVEELKGRLTPYADEFKVKIDQTVEELRRSLAPYAQDTQEKLNHQLEGLTFQMKKNAEELKARISASAEELRQRLAPLAEDVRGNLRGNTEGLQKSLAELGGHLDQQVEEFRRRVEPYGENFNKALVQQMEQLRQKLGPHAGDVEGHLSFLEKDLRDKVNSFFSTFKEKESQDKTLSLPELEQQQEQQQEQQQEQVQMLAPLES
With B2 the “suppression of food intake” value (male Sprague Dawley rats [1]; third ventricle infusion, 1.5 and 3 μg per rat) was “effective in suppressing food intake in rats in a dose dependent manner”.

B3: cholecystokinin (peptide, UniProt P06307 21-115, looked up)
Cholecystokinin: QPVPPADPAGSGLQRAEEAPRRQLRVSQRTDGESRAHLGALLARYIQQARKAPSGRMSIVKNLQNLDPSHRISDRDYMGWMDFGRRSAEEYEYPS
modifications: Cholecystokinin
notes: peptide proposed as affecting eating behavior
In the case of B3, the “food intake in animal studies” value (animal) is given as “decrease food intake”.
